# Assay results taken from a melting point compilation (Tetko et al.; mined from patent text by program, amines drawn as free bases though some values may be those of a salt).
row,Structure (SMILES),melting point
1,C[Si](C)(Cc1ccccc1)CN1C(=O)c2ccccc2C1=O,91 to 92 °C
2,Cc1cc2c3c(c1)nc(N1CCN(C)CC1)n3CCC2,164 to 165 °C
3,O=C(c1ccccc1)C1CCN1C(c1ccccc1)c1ccccc1 (stereo unspecified),114 to 115 °C
4,ClCCOc1ccc2ccccc2c1,94 °C
5,Cn1cc2c(n1)-c1sccc1N(C(=O)c1ccc(NC(=O)C3CCCCC3)cc1)CC2,240 to 242 °C
6,O=C(Nc1ccccc1)Nc1cccc(-c2ccc(CC3SC(=O)NC3=O)cc2)c1 (stereo unspecified),185 °C
7,O=[N+]([O-])c1ccc(N=Nc2ccc(N(CC3CO3)CC3CO3)cc2)cc1 (stereo unspecified),135 to 136 °C
8,BrCCCNC(c1ccccc1)(c1ccccc1)c1ccccc1,100 to 102 °C
9,O=C(O)c1coc(Cn2cc(C3c4ccccc4C=Cc4ccccc43)c(=S)[nH]c2=O)n1,200 °C
10,OC1CSC(Oc2ccc(-c3ccsc3)nc2)C(O)C1O (stereo unspecified),154 °C
11,CNC(=C[N+](=O)[O-])NCCOc1cccc(CCCN(C)C)c1,82 to 83.5 °C
12,Clc1cc(NCCc2c[nH]cn2)ccn1,164 to 165 °C
13,CC(C)C(NC(=O)OCC1c2ccccc2-c2ccccc21)C(=O)Nc1n[nH]c(=S)s1 (stereo unspecified),141 to 144 °C
14,COc1ccc(-c2cc3cc(C4=NNC(=O)CC4)ccc3[nH]2)cc1,262 to 264 °C
15,Clc1ccccc1-c1nc2cc(Cn3ccnc3)ccc2[nH]1,115 °C
16,O=C1c2ccccc2C(=O)N1c1ccccc1CSc1nccn1Cc1ccccn1,80 to 83 °C
17,Nc1c(I)cc(Cl)cc1[N+](=O)[O-],134 to 135 °C
18,CSc1nc(-c2cc(C(C)(C)C)c(O)c(C(C)(C)C)c2)c[nH]1,249 to 251 °C
19,CC1(N)CN(c2c(F)cc3c(=O)c(C(=O)O)cn(-c4ccc(F)cc4F)c3c2F)C1,185 to 186 °C
20,Cc1ccc(C(=O)Nc2c(NC(=O)CN3CCN(c4ccccc4C#N)CC3)ccc3c2C(=O)c2ccccc2C3=O)cc1,238 to 239 °C
21,O=C(NC(=O)c1c(F)cccc1F)Nc1cc(Cl)c(Oc2ccc(Cl)c3ccccc23)c(Cl)c1,237 to 239 °C
22,CCCCCCCCCCCC(=O)NCCCSc1ccncc1,71 to 72 °C

row,Structure (SMILES),melting point
1,CC1CN(C(=O)OC(C)(C)C)CCC1(O)c1cc(C(F)(F)F)cc2ccoc12 (stereo unspecified),133 to 136 °C
2,Cc1c(C)c2c(c(C)c1NC(=O)N1CCCC1)C(c1ccc(C(C)C)cc1)CO2 (stereo unspecified),186 to 188 °C
3,CN(Cc1ccccc1)C1c2ccccc2CC1O (stereo unspecified),64 °C
4,COc1ccc(CONS(C)(=O)=O)cc1,114 to 116 °C
5,CC1CN(CC(C)C(O)c2ccc(C(C)(C)C)cc2)CC(C)O1 (stereo unspecified),49 to 50 °C
6,O=C(O)C1(CCCCCC(O)CCCCCC2(C(=O)O)CC2)CC1,87 to 91 °C
7,CN1CC(C(=O)NC2NCCS2)CC2c3ccc(C(C)(C)C)c4[nH]cc(c34)CC21 (stereo unspecified),243 to 247 °C
8,CC(C)(c1ccc(Oc2cccc(N3C(=O)C=CC3=O)c2)cc1)c1ccc(C(C)(C)c2ccc(Oc3cccc(N4C(=O)C=CC4=O)c3)cc2)cc1,192 to 193 °C
9,O=C(Nc1ccc(Cl)c(-c2ccnc3c(C(=O)c4cccs4)cnn23)c1)c1ccccc1,194 to 195 °C
10,C(=C(c1ccccc1)c1ccccc1)C1CCN(CCCCCCCCCCc2cccnc2)CC1,63 to 65 °C
11,CN1CC(=O)Nc2ccc(Br)cc2C1=O,260 to 261 °C
12,CCCCC1CCC2(C)C(=CCC3C4CCC(=O)C4(C)CCC32)C1 (stereo unspecified),84 to 86 °C
13,COc1cc(Nc2c(C#N)cnc3cc(-c4ccc(CN(C)C)cc4)sc23)c(Cl)cc1Cl,224 to 225 °C
14,COc1ccc(-c2nc(CCCCCCc3nnn[nH]3)oc2-c2ccc(OC)cc2)cc1,124 °C
15,Cc1onc(NS(=O)(=O)c2ccccc2-c2ccc(-c3ncccn3)cc2Cn2ccc(C(F)(F)F)n2)c1C,108 to 114 °C
16,O=c1[nH]c2cc([N+](=O)[O-])sc2[nH]c1=O,> 300 °C
17,O=C(CNC(=O)c1cccc(Cl)c1)c1ccsc1,137 to 140 °C
18,CC(C)=C1C(=O)N(c2ccc(N)cc2)C(=O)/C1=C(\C)c1cc(C)oc1C,209 to 211 °C
19,CC(C(=O)O)c1c(C(=O)c2ccccc2)[nH]c2cc(Cl)ccc12 (stereo unspecified),193 to 196 °C
20,CCOP(=O)(OCC)C1C(=O)NC(=O)N1C (stereo unspecified),95 to 96 °C
21,Cc1cccc2c1N(CC(=O)N1CC3CCC(CC3)C1)C(=O)C(NC(=O)Nc1cccc(CO)c1)N=C2c1ccccc1F (stereo unspecified),188 to 202 °C
22,Fc1ccc(N2CCN(Cc3cn4cc(Br)ccc4n3)CC2)cc1,110 to 112 °C

row,Structure (SMILES),melting point
1,COc1cc2c(cc1OC)CCN=C2,185 to 187 °C
2,O=[N+]([O-])c1cc(-c2ccco2)ccc1Nc1cccc(-n2ccnc2)c1,147 to 149 °C
3,O=C(O)CCCc1cc2nc(Cl)ccc2n1S(=O)(=O)c1ccc(N2CCCC2)cc1,88 °C
4,Sc1c(Br)cc(Br)c(Br)c1S,125 to 127 °C
5,O=C(O)c1cc(OCc2ccccc2)cc([N+](=O)[O-])c1,157 to 158 °C
6,COc1ccccc1CS(=O)(=O)Cc1ccccc1OC,90 to 92 °C
7,COc1c(C)c(C)c(NC(=O)OC(C)(C)C)c(C)c1Br,159 to 161 °C
8,"CC(NC(=O)C1CC(=O)c2cc(F)ccc2O1)c1ccccc1 (single isomer, unassigned; (+))",140 °C
9,O=C(O)c1ccccc1OCCCc1cc(-c2ccc(C(F)(F)F)cc2)no1,132 to 133 °C
10,O=C(N[C@H]1C=C[C@@H](C(=O)O)C1)c1ccccc1,150 to 151 °C
11,CCCCCCCCCCCCCCCCCC(=O)ON1C(=O)c2ccccc2C1=O,76 to 80 °C
12,O=C(O)CN(CCN(CC(=O)O)CC(=O)O)CCN(CC(=O)O)CC(=O)NCCC(O)(P(=O)(O)O)P(=O)(O)O,145 °C
13,CC(C)C(CN(C)c1ccccc1)NS(=O)(=O)c1c(Cl)cc(Cl)cc1Cl (stereo unspecified),169 to 170 °C
14,O=Cc1ccc(F)c(OCc2ccccc2)c1,68 to 69 °C
15,C#CC1(CO)C=CC(n2cc(C)c(=O)[nH]c2=O)O1 (stereo unspecified),207 to 209 °C
16,Cc1ccc2ncn(C3CCC(=O)NC3=O)c(=O)c2c1 (stereo unspecified),285 to 287 °C
17,FC(F)c1nc2ccccc2n1-c1nc(NCc2cccnc2)nc(N2CCOCC2)n1,160 to 161 °C
18,CCCCCCCCCCNc1c(Nc2ccc(CCCNC[C@H](O)COc3cccc4[nH]c5ccccc5c34)cc2)c(=O)c1=O,225 °C
19,CCCN(CCC)Cc1csc(-c2ncn3c2[C@@H]2CCCN2C(=O)c2c(Cl)cccc2-3)n1,213 to 214 °C
20,Oc1ncnc2c1c(Nc1cccc(Cl)c1)nn2Cc1ccccc1,148 to 150 °C
21,Cc1cc(NCCNc2cc(C)[nH]n2)n[nH]1,255 to 257 °C
22,C[C@]1(CN2CCC(NC(=O)Nc3ccc(C(F)(F)F)cc3)CC2)Cn2cc([N+](=O)[O-])nc2O1,137 to 140 °C

# Now from value to compound:
row,melting point,Structure (SMILES)
1,216 to 218 °C,CN1CCN(c2cc3c(c(N)c2F)c(=O)c(C(=O)O)cn3C2CC2)CC1
2,75 to 77 °C,CCCCCCc1c(C(C)C)nc(C(C)C)c(C(C)O)c1-c1ccc(F)cc1 (stereo unspecified)
3,113 to 114 °C,CCOCC(=O)Nc1nc2ccccc2s1
4,119 to 121 °C,COc1ccc2nc(OC)cc(CCNC(C)=O)c2c1
5,135 to 136 °C,C=Cc1ccc(COc2ccc(CSCCC(=O)O)cc2)cc1
6,152 to 154 °C,CC(=O)c1ccc2c(c1)oc(=O)n2CCCN1CCC(c2noc3cc(F)ccc23)CC1
7,147 to 148 °C,CC#CC=NNC(=O)c1cc(OC)cc(Oc2cccc(C(F)(F)F)c2)n1
8,166 to 167 °C,Cc1nc(-n2cc(OCc3ccccc3)ccc2=O)sc1C(=O)NCc1ccccc1
9,46 to 47 °C,CCOC(=O)c1ccc(C(=O)OCC)nc1
10,142 to 143 °C,COC[C@@H]1CN(c2nsc3cc(O)ccc23)C(=O)O1
11,62 to 66 °C,Cc1ccc2nc(OCC(=O)NCCCN(C)Cc3ccc(Cl)c(Cl)c3)oc2c1
12,120 °C,CC1(C)C=C(c2ccccn2)C2=C(CC=CC(C#N)=C2)C1
13,94 to 96 °C,COC(=O)c1cccc(C)c1OC(=S)N(C)C
14,255 to 259 °C,Cc1ccc(-c2nc3sc4ccccc4n3c2CC(=O)O)s1
15,181 to 186 °C,CC(=O)N1CCc2c(sc3nc4ccccc4n23)C1
16,117 to 119 °C,Nc1nc(CCCO)nc2c1ncn2C1OC(CO)C(O)C1S (stereo unspecified)
17,117 to 118 °C,CCOC(=O)c1ccc2c(c1)N=C(C)c1ccc(OC)cc1O2
18,124 to 125 °C,CCCCCCCCCCCC(=O)c1ccc(-c2ccc(OC)c(F)c2)cc1

row,melting point,Structure (SMILES)
1,213 to 215 °C,O=C1CCCN1CC1CCN(c2nc(C(F)(F)F)ncc2O)CC1
2,96 to 97 °C,CCOC(=O)c1cc(-c2cccc(OC)c2)[nH]c1N
3,88 to 89 °C,CCOC(=O)Nc1cc(N)ccc1F
4,70 to 71 °C,CCC(O)c1cc(C(=O)c2ccccc2)no1 (stereo unspecified)
5,131 to 132 °C,CC(=O)OCC(=O)Nc1cccc(N2CCOCC2)c1C#N
6,52.8 °C,CCCCCSc1ccc(-c2ncc(CCCCC)cn2)cc1
7,148 to 154 °C,CN1C(=O)CC(c2c(-c3ccc[nH]3)[nH]c3ccc(O)cc23)C1=O (stereo unspecified)
8,190 to 191 °C,CC(C)(C)OC(=O)c1n[nH]c2nc(N3CCNCC3)ccc12
9,86 °C,C=CCOC(=O)c1c(C)nc2c(cnn2CCCC#N)c1N
10,155 to 156 °C,CCCc1nc2c(N)nc3cccnc3c2n1CCCCN(OC)C(C)=O
11,149 to 150 °C,COC(=O)C1=C(C)NC(C)=C(C(=O)OC)C1c1ccc(OCC(=O)NCCO[N+](=O)[O-])c(OC)c1
12,163 to 165 °C,CCCCCOc1cc(C(=O)O)cc([N+](=O)[O-])c1C(=O)c1ccccc1
13,59 to 61 °C,CCCCC(=N)NC(=O)N(C)c1ccc(Cl)cc1
14,221 to 223 °C,CN(C)CCCOc1ccc(-c2nn(CC(=O)O)c3ncccc23)cc1
15,103 °C,N#CC(C#N)=C(NCC(=O)O)Nc1cc(Cl)cc(Cl)c1
16,150 to 152 °C,COC(=O)c1cccc2[nH]c(-c3ccc(Cl)cc3)cc12
17,93 to 95 °C,COc1cc(OC)cc(C(=CC#N)c2ccc(OC)c(N)c2)c1
